Common to all, as to test: inhibition of tumour cell growth, NCI panel, 48 h
Experiment [1] relates to HL-60(TB) leukemia.
In experiment [2] the test system is OVCAR-5 ovarian.
In experiment [3] the test system is OVCAR-8 ovarian.
Experiment [4] has as its system RXF 393 renal.
Experiment [5] relates to SF-268 CNS.
Experiment [6] has as its system SK-MEL-5 melanoma.
For experiment [7], the system named is SK-OV-3 ovarian.
Experiment [8] deals with U251 CNS.
In experiment [9] the test system is UACC-62 melanoma.

Several values for one entry are separate records, joined by “and”; a condition that tells them apart may be missing. Equal values may be shown once.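 Step 1: Grow cells in 96-well plates. Step 2: Expose to compound for 48 hours at 5 concentrations. Step 3: Interpolate endpoints linearly; if unreached, use highest concentration. GI50 = concentration required for 50% inhibition of growth. TGI denotes the concentration required for complete inhibition of growth.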

In the case of `Cc1ccc(C2=NO[C@@H]3C(=O)N(c4ccc(Cc5ccc(N6C(=O)[C@H]7C(c8ccc(C)cc8)=NO[C@H]7C6=O)cc5)cc4)C(=O)[C@H]23)cc1`, the TGI in experiment [1], in experiment [2], in experiment [3], in experiment [4], in [5] and in experiment [6] was above 100 µM in each case. Besides, the TGI in [7], in experiment [8] and in experiment [9] was above 100 µM each time.

For `Cc1ccc2[nH]c(=O)c(C(C#N)c3ccccc3)nc2c1` (configuration not stated), the TGI in [2] was above 100 µM; in experiment [4] it was 78.8 µM; in [5], above 100 µM; in [6], 57.8 µM; in experiment [7], above 100 µM; in experiment [8], 84.5 µM. Also, in [9], the TGI was found to be 75.1 µM.

For the molecule `O=C(NCC#CCO)C(F)(F)F`, the TGI in experiment [2], in experiment [3], in experiment [4], in experiment [5], in experiment [6] and in [7] was above 100 µM in each case. Also, the TGI in experiment [8] and in experiment [9] was above 100 µM in each case.

Take `CCC(=C(c1ccc(OCc2ccccc2)cc1)c1ccc(OCc2ccccc2)cc1)c1ccc(OC)cc1`: the TGI in experiment [1], in [2], in [3], in experiment [4], in [5] and in experiment [6] was above 100 µM throughout. Besides, the TGI in experiment [7], in [8] and in experiment [9] was above 100 µM in each case.

Regarding `CCOC(=O)C1=C(C)N(NC(=O)c2ccccc2)C2(O)CCCC12C(=O)OCC` (configuration not stated), the TGI in [1], in experiment [2], in [3], in experiment [4], in experiment [5] and in experiment [6] was above 100 µM in each case. Further, the TGI in experiment [7], in [8] and in experiment [9] was above 100 µM throughout.

`Cc1cc(C)n(-c2c(O)ccc(O)c2-n2nc(C)cc2C)n1`: the TGI in experiment [1], in [2], in [3], in [4], in experiment [5] and in experiment [6] was above 100 µM each time. Further, the TGI in [7], in experiment [8] and in experiment [9] was above 100 µM in each case.

Turning to `COc1ccc2c(c1)[n+]([O-])c(-c1nc3ccccc3s1)c(N)[n+]2[O-]`, the TGI in experiment [1], in experiment [2], in [3], in [6], in experiment [7] and in experiment [8] was above 100 µM throughout.

For the molecule `CC1C2=CC=C(O2)C(C)(C)C2=CC=C(O2)C(C)(C)C2=CC=C(O2)C(C)(C)C2=CC=C1O2`, the TGI in experiment [1], in [2], in [3], in experiment [4], in [5] and in experiment [7] was above 100 µM in each case. The molecule also returned a TGI in experiment [8] above 100 µM.

Turning to `O=C(O)/C(Cl)=C(\Cl)C(=O)Nc1ccccc1`, the TGI in experiment [2], in [4], in experiment [5], in experiment [6], in [7] and in experiment [8] was above 100 µM each time. Further, the TGI in [9] is above 100 µM.

Take `CSC(=S)NNC(=O)c1ccncc1`: the TGI in experiment [1] came out at 39.9 µM; in experiment [2], 48.7 µM; in [3], 40.6 µM; in experiment [4], 31.8 µM; in experiment [5] it was 63.3 µM; in experiment [6] it was 62.6 µM. Also, the TGI in [7] was 96.2 µM; in experiment [8] it was 41.9 µM; in experiment [9], 31.1 µM.

Take `COC(=O)C1=CC2OC1(C)C1(CC1)C2=O` (configuration not stated): the TGI in [1] was 16.1 µM; in experiment [2], 57.4 µM; in experiment [3], 31.3 µM; in [4], 28.9 µM; in experiment [5] it was 43.3 µM; in experiment [7], above 100 µM. The molecule also yielded a TGI in experiment [8] above 100 µM.

Turning to `Nc1nc(N)c(-c2ccc(Cl)cc2)c(CCC(=O)Nc2cccc(C(F)(F)F)c2)n1`, the TGI in experiment [1], in [2], in [3], in [4], in [5] and in [6] was above 100 µM each time. Besides, the TGI in experiment [7], in experiment [8] and in experiment [9] was above 100 µM in each case.

Take `COC(=O)C1C(=O)O[C@@H](c2ccc(OC)cc2OC)C1C(=O)OC` (some centres not stated): the TGI in experiment [1], in experiment [2], in [3], in experiment [4], in experiment [5] and in experiment [6] was above 100 µM each time. The TGI in experiment [7], in experiment [8] and in experiment [9] was above 100 µM in each case.

In the case of `CC1OC(O)CC(OC(=O)c2ccccc2)C1OC(=O)c1ccccc1` (configuration not stated), the TGI is 36 µM in experiment [1]; above 100 µM in experiment [2]; 31.6 µM in experiment [3]; 39.3 µM in [4]; 30 µM in [5]; 31.4 µM in experiment [6]. The TGI is above 100 µM in experiment [8] and 31.5 µM in experiment [9].

Turning to `Cn1c2cccc3nnc4cccc(c4c32)n1C`, the TGI in experiment [1], in experiment [2], in experiment [3], in [4], in experiment [5] and in [6] was above 100 µM throughout. Besides, the TGI in experiment [8] and in [9] was above 100 µM throughout.

In the case of `COc1ccccc1NC(=O)C1=C(C)NC(C)=C(C(=O)Nc2ccccc2OC)C1c1ccccc1OC`, the TGI in experiment [1], in [2], in experiment [3], in experiment [5], in experiment [6] and in [7] was above 100 µM each time. Moreover, the TGI in experiment [8] and in experiment [9] was above 100 µM in each case.

`COC(=O)C(=O)C(C(=O)C(=O)Nc1cc([N+](=O)[O-])ccc1[N+](=O)[O-])c1nc2ccc(C(=O)c3ccccc3)cc2[nH]c1=O` (configuration not stated): the TGI in experiment [2] is 70.5 µM; in [3] it was above 100 µM; in experiment [5], above 100 µM; in [6], 45.9 µM; in experiment [7], above 100 µM; in experiment [8], above 100 µM.

As for `O=C(C=Nc1ccccc1C(=O)[O-])c1cccs1.O=C(C=Nc1ccccc1C(=O)[O-])c1cccs1.[Cu+2]`, the TGI in experiment [1], in [2], in experiment [3], in experiment [5], in [7] and in experiment [8] was above 100 µM throughout. The TGI in experiment [9] was above 100 µM.

As for `CC12CC3CC(C)(C1)CC(N=[N+]=[N-])(C3)C2`, the TGI in [2], in experiment [3], in [5], in [6], in [7] and in [8] was above 100 µM in each case. For the same molecule, the TGI in experiment [9] is above 100 µM.

In the case of `Cc1ccc(S(=O)(=O)N/N=C(\C(=O)Nc2cccc([N+](=O)[O-])c2)c2nc3ccc([N+](=O)[O-])cc3[nH]c2=O)cc1`, the TGI in experiment [2], in experiment [3], in experiment [4], in experiment [5], in experiment [6] and in experiment [7] was above 100 µM in each case. Besides, the TGI in experiment [8] and in experiment [9] was above 100 µM each time.

For the molecule `O=C1c2ccccc2C(=O)c2nc(-c3ccccc3)c(-c3ccccc3)nc21`, the TGI in experiment [2] is above 100 µM; in [3], above 100 µM; in experiment [4], above 100 µM; in [5], above 100 µM; in [6] it was 8.2 µM; in experiment [7] it was above 100 µM. Moreover, the TGI in experiment [8] and in experiment [9] was above 100 µM throughout.

Take `O=C(CC(=O)C(F)(F)F)c1csc2ccccc12`: the TGI is above 100 µM in [2]; 60.2 µM in experiment [3]; above 100 µM in experiment [5]; above 100 µM in experiment [6]; 63.6 µM in experiment [7]; above 100 µM in experiment [8]. This molecule came in with a TGI in [9] above 100 µM.

As to `Nc1ccn([C@@H]2C=C(CO)[C@@H](O)[C@H]2O)c(=O)n1`, the GI50 in experiment [2] was 0.13 µM. The TGI in experiment [3] was 67 µM and > 625 µM; in experiment [4], 201 µM and 44.8 µM; in [5], 500 µM and > 625 µM; in experiment [6] it was 406 µM and 379 µM; in [8], 500 µM and > 625 µM; in [9] it was 135 µM and 224 µM.

As to `CC1C(=O)N(C)C2(CO)C(=O)O[C@H](C)C12O` (some centres not stated), the TGI in [2], in experiment [3], in experiment [4], in experiment [5], in experiment [6] and in [7] was above 100 µM each time. Moreover, the TGI in [8] and in experiment [9] was above 100 µM each time.

(Values after PubChem BioAssay (NCI).)
